From article PMC8802806, “Synthesis and Antitumor Activity of Erlotinib Derivatives Linked With 1,2,3-Triazole” (Frontiers in Pharmacology, 2022)
Values joined by “and” are separate entries in the source; they are usually repeats but may differ in a detail not shown here. Identical values can stand only once. Like-named read-outs stand apart in the source and are kept apart here.

Experiments:
HeLa cells [1] = assay: Cell antiproliferative activity assay (CCK8); format: cell-based, human; conditions: for inhibition at 0.25 µM: 250 nM; for inhibition at 0.5 µM: 500 nM; for inhibition at 1 µM: 1000 nM; for inhibition at 2 µM: 2000 nM; for inhibition at 4 µM: 4000 nM; for inhibition at 8 µM: 8000 nM; for inhibition at 16 µM: 16000 nM
Procedure: Cell antiproliferative activity was evaluated by the Cell Counting Kit-8 (CCK8, DOJINDO, Japan) assay. The cells were seeded at a density of 2,000 cells per well into 96-well microplate in 100 μl of growth medium. Cells were incubated at 37°C and 5% CO2 overnight. The next day, 100 μl per well of diluted inhibitor in growth medium was added with the final concentration from 0.1 nM to 100 μM. The cells were treated with DMSO as control. A series of dilutions are made in 0.1% DMSO in assay medium so that the final concentration of DMSO is 0.1% in all of treatments. Cells were incubated at 37°C and 5% CO2 for 48 h. Then, 10 μl of CCK8 was added to each well. The plates were incubated at 37°C for 2 h; after that, the plates were recorded by measuring absorbance at 450 nm with the reference wavelength of 630 nm using an EnVision Multilabel Reader (PerkinElmer). The IC50 values were calculated using GraphPad Prism 6.0 software and determined by the concentration causing a half-maximal percent activity. All assays were conducted with three parallel samples and three repetitions.

HeLa cells [2] = assay: Flow cytometry detection for cell cycle; format: cell-based, human; conditions: 6 μM, 48 h
Procedure: HeLa (5 × 10^4/well) cells were seeded in 12-well plates for 24 h and then treated with 0.1% DMSO (as control), compounds 4d, 4k, and 4l of various concentrations for 48 h, respectively. The treated cells were harvested, washed with PBS, and then stained using the cell-cycle staining kit [Multisciences (Lianke) Biotech] according to the manufacturer’s manual. The distribution of cell-cycle phases with different DNA contents was determined by flow cytometry (BriCyte E6) and analyzed using ModFit LT software.

HeLa cells [3] = assay: Flow cytometry detection for cell apoptosis (Annexin V/PI); format: cell-based, human; conditions: for Q1 (flow cytometry quadrant, Figure 4A) / Q4 (flow cytometry quadrant, Figure 4A) / Q2: FITC-A+ , PE-A+ Freq. of Parent / Q3: FITC-A+ , PE-A- Freq. of Parent: Annexin V/PI; for Q2: FITC-A+ , PE-A+ Freq. of Parent / Q3: FITC-A+ , PE-A- Freq. of Parent / Q2+Q3 (column without head, sum on percent scale): single samples
Procedure: Cell-apoptosis analysis was carried out by flow cytometry using the Annexin V/PI apoptosis kit (Solarbio, China) according to the manufacturer’s manual. Briefly, HeLa (5 × 10^4/well) cells were seeded in 12-well plates for 24 h and then treated with 0.1% DMSO (as control) or various concentrations of compounds 4d, 4k, and 4l for 72 h, respectively. Cells were harvested, washed with PBS, and then incubated with 100 μl of 1 × Annexin V binding buffer containing 1 μl FITC Annexin V for 10 min at RT in the dark. Cells were incubated for another 5 min at room temperature (RT) in the dark after 1 μl PI was added. PBS (200 µl) was added to each tube for flow cytometry analysis (BriCyte E6). The percentages of apoptotic cells were analyzed using FlowJo soft.

HeLa cells [4] = assay: Colony formation assay; format: cell-based, human; conditions: for effect on cell colony formation: 2 weeks
Procedure: HeLa cells were seeded in six-well plates at the density of 500/well for 24 h, and then treated with 0.1% DMSO (as control), various concentrations of compounds 4d, 4k, and 4l, respectively. The cells were incubated for 2 weeks in a 5% CO2 environment at 37°C for colony formation. The media was gently removed from each of the plates, and then each plate was washed with PBS twice. The colonies were fixed with 4% polyformaldehyde for 10 min and then wash the cells with ddH2O twice. Stain with 1 ml Crystal Violet Staining Solution (Beyotime, China) for 10 min. Wash excess crystal violet with ddH2O and allow dishes to dry. Take pictures of the plate and count the colonies.

[5] = Homo sapiens, HeLa, 48 h, HeLa cells, CCK8, 48 h, mean ± SD, n = 3, read-out: IC50 (μM) HeLa
[6] = Homo sapiens, HeLa, HELA 2000cells/well, supplement DataSheet2, Repeat1, read-out: IC50 Repeat1
[7] = Homo sapiens, HeLa, HELA 2000cells/well, supplement DataSheet2, Repeat 2, read-out: IC50 Repeat 2
[8] = Homo sapiens, HeLa, HELA 2000cells/well, supplement DataSheet2, mean of two repeats ± SD, read-out: IC50 mean±SD
[9] = Homo sapiens, HELA 2000cells/well, Repeat1, read-out: Inhibition (%) Repeat1
[10] = Homo sapiens, HELA 2000cells/well, Repeat2, read-out: Inhibition (%) Repeat2

SMILES: COCCOc1cc2ncnc(Nc3cccc(-c4cn(-c5ccccc5OC)nn4)c3)c2cc1OCCOC [Compound 4k, [6,7-Bis-(2-methoxy-ethoxy)-quinazolin-4-yl]-{3-[1-(2-methoxy-phenyl)-1H-[1,2,3]triazol-4-yl]-phenyl}-amine]
- IC50 (HeLa cells [1]; HeLa cells, CCK8, 48 h, mean ± SD, n = 3, read-out: IC50 (μM) HeLa): 4.16 ± 0.48 µM
- IC50 (HeLa cells [1]; [5]): 3.79 µM
- IC50 (HeLa cells [1]; [6]): 3.72 µM
- IC50 (HeLa cells [1]; [7]): 4.68 µM
- IC50 (HeLa cells [1]; [8]): 4.16 ± 0.481 µM
- inhibition at 0.25 µM (HeLa cells [1]; [9]): 3.39%
- inhibition at 0.25 µM (HeLa cells [1]; [10]): 0%
- inhibition at 0.5 µM (HeLa cells [1]; [9]): 4.2%
- inhibition at 0.5 µM (HeLa cells [1]; [10]): 6.96%
- inhibition at 1 µM (HeLa cells [1]; [9]): 8.3%
- inhibition at 1 µM (HeLa cells [1]; [10]): 7.05%
- inhibition at 2 µM (HeLa cells [1]; [9]): 22.3%
- inhibition at 2 µM (HeLa cells [1]; [10]): 10.7%
- inhibition at 4 µM (HeLa cells [1]; [9]): 48.8%
- inhibition at 4 µM (HeLa cells [1]; [10]): 43.1%
- inhibition at 8 µM (HeLa cells [1]; [9]): 90.1%
- inhibition at 8 µM (HeLa cells [1]; [10]): 73.9%
- inhibition at 16 µM (HeLa cells [1]; [9]): 96.8%
- inhibition at 16 µM (HeLa cells [1]; [10]): 97%
- cell cycle phase at which HeLa cells were arrested (HeLa cells [2]): both G0/G1 and G2/M
- Q1 (flow cytometry quadrant, Figure 4A) (HeLa cells [3]; 3 μM, 72 h): 2.64%
- Q4 (flow cytometry quadrant, Figure 4A) (HeLa cells [3]; 3 μM, 72 h): 93.0%
- Q2: FITC-A+ , PE-A+ Freq. of Parent (HeLa cells [3]; 3 μM, 72 h): 3.63%
- Q3: FITC-A+ , PE-A- Freq. of Parent (HeLa cells [3]; 3 μM, 72 h): 0.75%
- Q1 (flow cytometry quadrant, Figure 4A) (HeLa cells [3]; 6 μM, 72 h): 8.66%
- Q4 (flow cytometry quadrant, Figure 4A) (HeLa cells [3]; 6 μM, 72 h): 64.2%
- Q2: FITC-A+ , PE-A+ Freq. of Parent (HeLa cells [3]; 6 μM, 72 h): 21.9%
- Q3: FITC-A+ , PE-A- Freq. of Parent (HeLa cells [3]; 6 μM, 72 h): 5.30%
- Q1 (flow cytometry quadrant, Figure 4A) (HeLa cells [3]; 12 μM, 72 h): 24.0%
- Q4 (flow cytometry quadrant, Figure 4A) (HeLa cells [3]; 12 μM, 72 h): 11.6%
- Q2: FITC-A+ , PE-A+ Freq. of Parent (HeLa cells [3]; 12 μM, 72 h): 61.9%
- Q3: FITC-A+ , PE-A- Freq. of Parent (HeLa cells [3]; 12 μM, 72 h): 2.53%
- melting point: 87 to 90 °C

SMILES: COCCOc1cc2ncnc(Nc3cccc(-c4cn(Cc5cc(Br)cc(Br)c5)nn4)c3)c2cc1OCCOC [Compound 4d, [6,7-Bis-(2-methoxy-ethoxy)-quinazolin-4-yl]-{3-[1-(3,5-dibromo-benzyl)-1H-[1,2,3]triazol-4-yl]-phenyl}-amine]
- IC50 (HeLa cells [1]; [5]): 7.02 ± 0.04 µM
- IC50 (HeLa cells [1]; [6]): 7.07 µM
- IC50 (HeLa cells [1]; [7]): 6.98 µM
- IC50 (HeLa cells [1]; [8]): 7.025 ± 0.0445 µM
- inhibition at 0.25 µM (HeLa cells [1]; [9]): 9.75%
- inhibition at 0.25 µM (HeLa cells [1]; [10]): 0%
- inhibition at 0.5 µM (HeLa cells [1]; [9]): 13%
- inhibition at 0.5 µM (HeLa cells [1]; [10]): 13.6%
- inhibition at 1 µM (HeLa cells [1]; [9]): 16.9%
- inhibition at 1 µM (HeLa cells [1]; [10]): 14%
- inhibition at 2 µM (HeLa cells [1]; [9]): 17%
- inhibition at 2 µM (HeLa cells [1]; [10]): 15.3%
- inhibition at 4 µM (HeLa cells [1]; [9]): 25.3%
- inhibition at 4 µM (HeLa cells [1]; [10]): 26.6%
- inhibition at 8 µM (HeLa cells [1]; [9]): 53.2%
- inhibition at 8 µM (HeLa cells [1]; [10]): 54.6%
- inhibition at 16 µM (HeLa cells [1]; [9]): 78.2%
- inhibition at 16 µM (HeLa cells [1]; [10]): 78.4%
- Q1 (flow cytometry quadrant, Figure 4A) (HeLa cells [3]; 3 μM, 72 h): 5.78%
- Q4 (flow cytometry quadrant, Figure 4A) (HeLa cells [3]; 3 μM, 72 h): 84.2%
- Q2: FITC-A+ , PE-A+ Freq. of Parent (HeLa cells [3]; 3 μM, 72 h): 9.25%
- Q3: FITC-A+ , PE-A- Freq. of Parent (HeLa cells [3]; 3 μM, 72 h): 0.82%
- Q2: FITC-A+ , PE-A+ Freq. of Parent (HeLa cells [3]; 3 μM, 72 h, listed as e4): 6.79% and 7.35% and 9.25%
- Q3: FITC-A+ , PE-A- Freq. of Parent (HeLa cells [3]; 3 μM, 72 h, listed as e4): 1.73% and 1.08% and 0.82%
- Q2+Q3 (column without head, sum on percent scale) (HeLa cells [3]; 3 μM, listed as e4): 8.52 and 8.43 and 10.07
- Q1 (flow cytometry quadrant, Figure 4A) (HeLa cells [3]; 6 μM, 72 h): 5.52%
- Q4 (flow cytometry quadrant, Figure 4A) (HeLa cells [3]; 6 μM, 72 h): 81.2%
- Q2: FITC-A+ , PE-A+ Freq. of Parent (HeLa cells [3]; 6 μM, 72 h): 10.5%
- Q3: FITC-A+ , PE-A- Freq. of Parent (HeLa cells [3]; 6 μM, 72 h): 2.69%
- Q2: FITC-A+ , PE-A+ Freq. of Parent (HeLa cells [3]; 6 μM, 72 h, listed as e4): 8.90% and 10.1% and 10.5%
- Q3: FITC-A+ , PE-A- Freq. of Parent (HeLa cells [3]; 6 μM, 72 h, listed as e4): 3.61% and 5.29% and 2.69%
- Q2+Q3 (column without head, sum on percent scale) (HeLa cells [3]; 6 μM, listed as e4): 12.51 and 15.39 and 13.19
- Q1 (flow cytometry quadrant, Figure 4A) (HeLa cells [3]; 12 μM, 72 h): 2.40%
- Q4 (flow cytometry quadrant, Figure 4A) (HeLa cells [3]; 12 μM, 72 h): 5.68%
- Q2: FITC-A+ , PE-A+ Freq. of Parent (HeLa cells [3]; 12 μM, 72 h): 86.4%
- Q3: FITC-A+ , PE-A- Freq. of Parent (HeLa cells [3]; 12 μM, 72 h): 5.49%
- Q2: FITC-A+ , PE-A+ Freq. of Parent (HeLa cells [3]; 12 μM, 72 h, listed as e4): 86.4% and 80.4% and 81.8%
- Q3: FITC-A+ , PE-A- Freq. of Parent (HeLa cells [3]; 12 μM, 72 h, listed as e4): 5.49% and 3.94% and 3.82%
- cell apoptosis in HeLa cells, percentage (HeLa cells [3]; 12 μM, 72 h, three independent experiments): 87.28%
- Q2+Q3 (column without head, sum on percent scale) (HeLa cells [3]; 12 μM, listed as e4): 91.89 and 84.34 and 85.62
- effect on cell colony formation (HeLa cells [4]; 6 μM): decrease the number of colonies
- effect on cell colony formation (HeLa cells [4]; 12 μM): entirely inhibited
- Number of Colonies /well (HeLa cells [4]; 12 uM, repeats 1-3): 0
